This data set can be described thus: MR imaging of uptake, retention and clearance in CCI mouse model of TBI. The format is in vivo, mice. As to the method: 8-10 Week old C57/B6 mice were induced with 4% isoflurane gas via inhalation and maintained at 1.5-2%, then placed upon a warm heating pad set to 100° F. to maintain body temperature. Prior to surgery, hair on the top of the skull was trimmed and epilated via shears and Nair (Church and Dwight Co., Inc., Princeton, NJ). Lidocaine (0.05 mL at a 5 mg/mL) and bupivacaine (0.05 mL at 0.3 mg/mL) were injected subcutaneously under the scalp. After 5 min to allow anesthetic to absorb, a midline incision was made in the skin from lambda to bregma. Fascia and skin were retracted and a small hole drilled using a high speed surgical drill over the left frontoparietal cortex (3 mm anterior and 2 mm left from lambda), and a 3 mm circular cranial window created using rongeurs. A pneumatically-operated controlled cortical impactor (CCI) with a 3 mm convex tip was used to impact the brain normal to the dura surface at a depth of 1 mm at 6 m/s and remained in the brain for 150 ms. Incisions were closed using skin glue and mice given an intraperitoneal injection of buprenorphine (0.1 mg/kg). Mice were monitored under a heat lamp until awake.
Three consecutive T1w images were acquired with RARE (rapid acquisition with refocused echoes) pulse sequence: TR/TE=667.5/4.5 ms, matrix=256×128, field of view (FOV)=25.6×25.6 mm, number of averages (NA)=1, 15 slices and 1 mm slice thickness. […] A series of T1w images were acquired using a fast low angle shot (FLASH) pulse sequence. There were three—four consecutive T1w sequences acquired both pre and post injection—one set of three pre injection acquisitions and then three sets of four post injection acquisitions with an additional set post the following day (4 post imaging total). These images utilized a 3 dimensional (D) FLASH sequence: TR/TE=20/3.87 ms, flip angle=20°, matrix=160×160×30, FOV=25.6×25.6 mm, NA=2, 30 slices and 3D slab of 15 mm. For the first group of mice, T2w images (TR/TE=5500/50 ms) were selected from RARE pulse sequence with (TR=214.3, 500, 1000, 1500, 3000 and 5500 ms and TE=10, 30, 50, 70 and 90 ms, matrix=256×128, FOV=25.6×25.6 mm, NA=1, 2 slices and 1 mm slice thickness. For the second group of mice, T2w images (TR/TE=4000/37.7 ms) were selected from multi-slice and multi-echo imaging conducted with TR/TE=4000/6.3−75.4 ms (12 echoes with 6.3 ms spacing), matrix=256×128, NA=1, 15 slices and 1 mm slice thickness.

For poly(MEMcoO950coMNHS) [ORP], for the setting “mouse, in vivo”, the “accumulation / contrast enhancement in damaged brain (T1 contrast)” value is on record as “showed accumulation in damaged brain after 18 hrs”, the “accumulation in damaged brain (T1 contrast)” value is “accumulates in the damaged region of brain”, the “blood (circulation) half-life” value is “about 1.1 hrs” and the “half-life in damaged brain (resident half-life)” value was “greater than 14 hrs”. For the setting “mouse, in vivo”, the “half-life in the ventricles” value is about 40 h, the “retention in damaged brain” value is listed as “at least 18 hrs” and the “retention within damaged brain” value is recorded as “at least 24 hrs”.
On to `O=C([O-])CN(CCN(CC(=O)[O-])CC(=O)O)CCN(CC(=O)[O-])CC(=O)O.[Gd+3]` [Gd-DTPA, reference compound], for which the “accumulation / contrast enhancement in damaged brain (T1 contrast)” value (injected 3 hrs post-CCI) is “displayed contrast enhancement in damaged brain”. This compound yielded a blood half-life (injected post-CCI, intravascular MR signal) of 0.6 h.

The values above are taken from patent US12329773B2, “Oxygen reactive polymers for treatment of traumatic brain injury” (University of Washington, priority 2015, dated 2025).
